Assay results published in patent publication US20230250417A1, “METHODS FOR DETECTING RNA TRANSLATION” (Eclipse Bioinnovations, Inc., priority 2021, published 2023).
“Also recorded” adds a separate entry of the source.

Columns and labels:
[1] = test system: TOP motif containing gene, GAPDH; assay: Ribo-ABC (oligo conjugated antibody) ribosome-bound RNA read counts, genome track view; format: cell-based; details: ribosomal proteins RPS2, RPS3, RPS14, FIG. 2 top panel
Procedure: (§1) Three different ribosomal proteins were used RPS2, RPS3, RPS14.
(§2) This example provides a protocol for a Ribo-ABC experiment according to an embodiment of the disclosure.
(§3) First, the tissue culture plate was placed on leveled ice or on a cooling block pre-chilled to 4° C. Second, the above (plate plus ice or cooling block) was placed into the UV cross-linker. Third, the tissue culture plate lid was removed for cross-linking. Fourth, cross-link at 254-nm UV with an energy setting of 400 mJoules/cm^2. Fifth, while keeping the cells on ice, a cell scraper (Corning, cat. #CLS3010-10EA) was used to scrape the plate. Sixth, the cells were transferred to a 15 mL conical tube. Seventh, the plate was washed once with 5 mL of chilled PBS and added to the same 15 mL tube. Eight, gently resuspended until the sample was homogeneous. Ninth, the 15 mL conical tube was centrifuged at 200×g for 3 minutes at 4° C. Tenth, the sample was aspirated and discarded supernatant. Eleventh, the desired amount of cells for flash freezing was resuspended in chilled PBS (typically 10×10^6 cells per mL). Twelfth, the sample was transferred into 1.5 mL LoBind tubes Tubes (typically 1 mL of 10×10^6 cells per mL). Thirteenth, the sample was spun down at 200×g for 3 minutes at 4° C. Fourteenth, the supernatant was aspirated, and the cell pellets were frozen quickly by submerging the 1.5 mL LoBind tubes in liquid nitrogen. […]

[2] = test system: non-TOP motif containing gene, PARP1; assay: as above; format: cell-based; details: ribosomal proteins RPS2, RPS3, RPS14, FIG. 2 bottom panel
Procedure: as §1, §2, §3

gene FUS = assay: Bead barcoded multiplexed RBP/RPS2 binding, genome track view (IGV) with normalized read counts; format: cell-based, human; details: cells treated with 200 nM Risdiplam for 2 hours vs DMSO control; FIG. 7
Procedure: FIG. 7 depicts an IGV screenshot of the gene FUS with normalized read counts for 7 different RBPs and the translation component protein RPS2. Two conditions are shown; one DMSO control and the other cells treated with 200 nM Risdiplam. […] This example illustrates a protocol for a bead barcoded experiment for detecting RNA modifications from cells with RBPs according to an embodiment of the disclosure. The buffers described below are the same as mentioned above with respect to Example 2 unless explicitly stated otherwise. First, Trypan blue stain (Thermo Fisher Scientific, cat. #15250061) or equivalent live cell counting assay was used to valuate cell viability. Next, cell viability was reviewed to be sure it was >95% to ensure intact RNA. Cells were grown to a proper confluence, in most cases grow cells to 75% confluence. Some cells were treated with 200 nM Risdiplam for 2 hours prior to harvesting. First, resuspend anti-rabbit Dynabeads by vortexing or pipetting up and down several times. Second, transfer 500 μL of beads (enough for 20 samples) into a 1.5 mL Eppendorf tube and place tube on DynaMag-2. Third, Remove the supernatant and wash beads thrice with 500 μL PBS, resuspending beads with each wash. Fourth, remove beads from magnet, resuspend beads in 500 μL PBS, add 1.65 μL DBCO-NHS (10 mM in DMSO), and rotate tube at room temperature for 1 hour. […]

Row | Molecule | change in read counts of GAPDH upon Torin treatment [1] | change in read counts of PARP1 upon Torin treatment [2] | change in binding on gene FUS (7 RBPs and RPS2) versus DMSO control (gene FUS)
1 | Torin | reduced read counts | no change in read counts | 
2 | Cc1cn2nc(-c3cc(=O)n4cc(N5CCNC6(CC6)C5)ccc4n3)cc(C)c2n1 [Risdiplam] |  |  | a change in binding across the two conditions; also recorded: a difference observed between the two conditions
